How the values were obtained:
MCR-4 = molecular target: T1, MCR-4 (Homo sapiens, UniProt P32245); test: Melanocortin receptor binding assay, competition with 125I-HP 467, HEK 293 cells expressing hMCR-4; details: inhibition of binding of 125I-HP 467, HEK 293 cells expressing MCR-4; read-out: MC-4 IC50
T1 construct: expressed in transfected cells; host or cells: HEK 293
How it was run: (§1)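 Test compounds compete on intact HEK 293 cells carrying hMCR-1 (2×10^4 per tube) or hMCR-4 (4×10^3 per tube), suspended in PBS, 10% calf serum, 1 mM CaCl2.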

MCR-1 = molecular target: T2, MCR-1 (Homo sapiens, UniProt Q01726); test: Melanocortin receptor binding assay, competition with 125I-HP 467, HEK 293 cells expressing hMCR-1; details: inhibition of binding of 125I-HP 467, HEK 293 cells expressing MCR-1; read-out: MC-1 IC50
T2 construct: expressed in transfected cells; host or cells: HEK 293
T2 sequence (Q01726 whole entry): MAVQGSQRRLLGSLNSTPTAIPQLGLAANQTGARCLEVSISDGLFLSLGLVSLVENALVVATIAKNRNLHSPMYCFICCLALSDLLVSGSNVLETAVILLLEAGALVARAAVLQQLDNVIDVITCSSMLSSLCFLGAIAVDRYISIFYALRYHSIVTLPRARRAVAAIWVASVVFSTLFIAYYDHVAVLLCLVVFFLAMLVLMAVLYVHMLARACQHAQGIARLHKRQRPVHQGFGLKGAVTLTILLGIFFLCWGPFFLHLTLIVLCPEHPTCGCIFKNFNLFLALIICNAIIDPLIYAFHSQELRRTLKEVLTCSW
How it was run: as §1

T1 sequence (P32245 whole entry): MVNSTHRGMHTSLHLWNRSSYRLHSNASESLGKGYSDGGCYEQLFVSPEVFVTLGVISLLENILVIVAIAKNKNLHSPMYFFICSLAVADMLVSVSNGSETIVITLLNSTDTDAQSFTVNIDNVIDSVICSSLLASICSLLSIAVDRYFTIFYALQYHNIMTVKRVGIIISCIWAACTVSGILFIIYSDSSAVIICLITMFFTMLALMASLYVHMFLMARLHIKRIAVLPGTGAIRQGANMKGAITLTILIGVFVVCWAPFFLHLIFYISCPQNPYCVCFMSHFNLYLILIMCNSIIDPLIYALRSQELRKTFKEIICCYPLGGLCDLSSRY

CCNc1ccc(C2C(CNCCc3ccccc3)c3ccccc3CN2CCCC(CN)NCCOCCNC(C)C)cc1 (stereo not shown) [TRG 2420-9]
IC50 (MCR-4): 3230 nM | IC50 (MCR-1): 40 nM

CCNc1ccc(C2C(CNCCc3ccccc3)c3ccccc3CN2CCCC(CN)NCCOCCNCc2ccccc2)cc1 (stereo not shown) [TRG 2420-10]
IC50 (MCR-4): 940 nM | IC50 (MCR-1): 55 nM

CCNc1ccc(C2C(CNCCc3ccccc3)c3ccccc3CN2CCC[C@@H](CN)NCCOCCN(CC)CC)cc1 (stereo partly shown) [TRG 2420-11]
IC50 (MCR-4): 4630 nM | IC50 (MCR-1): 28 nM

CCNc1ccc(C2C(CNCCc3ccccc3)c3ccccc3CN2CCCC(CN)NCCOCCNCCc2ccccc2)cc1 (stereo not shown) [TRG 2420-12]
IC50 (MCR-4): 1530 nM | IC50 (MCR-1): 79 nM

CCNc1ccc(C2C(CNCCc3ccccc3)c3ccccc3CN2CCCC(CN)NCc2ccccc2CNC(C)C)cc1 (stereo not shown) [TRG 2420-13]
IC50 (MCR-4): 670 nM | IC50 (MCR-1): 65 nM

CCNc1ccc(C2C(CNCCc3ccccc3)c3ccccc3CN2CCCC(CN)NCc2ccccc2CNCc2ccccc2)cc1 (stereo not shown) [TRG 2420-14]
IC50 (MCR-4): 290 nM | IC50 (MCR-1): 135 nM

CCNc1ccc(C2C(CNCCc3ccccc3)c3ccccc3CN2CCCC(CN)NCc2ccccc2CN(CC)CC)cc1 (stereo not shown) [TRG 2420-15]
IC50 (MCR-4): 1370 nM | IC50 (MCR-1): 70 nM

CCNc1ccc(C2C(CNCCc3ccccc3)c3ccccc3CN2CCCC(CN)NCc2ccccc2CNCCc2ccccc2)cc1 (stereo not shown) [TRG 2420-16]
IC50 (MCR-4): 1200 nM | IC50 (MCR-1): 164 nM

CCNc1ccc(C2C(CN)c3ccccc3CN2CCCC(CN)NCC2CC2CNC(C)C)cc1 (stereo not shown) [TRG 2420-25]
IC50 (MCR-4): 4820 nM | IC50 (MCR-1): 103 nM

CCNc1ccc(C2C(CN)c3ccccc3CN2CCCC(CN)NCC2CC2CNCc2ccccc2)cc1 (stereo not shown) [TRG 2420-26]
IC50 (MCR-4): 5010 nM | IC50 (MCR-1): 93 nM

CCNc1ccc(C2C(CN)c3ccccc3CN2CCCC(CN)NCC2CC2CN(CC)CC)cc1 (stereo not shown) [TRG 2420-27]
IC50 (MCR-4): 4190 nM | IC50 (MCR-1): 40 nM

CCNc1ccc(C2C(CN)c3ccccc3CN2CCCC(CN)NCC2CC2CNCCc2ccccc2)cc1 (stereo not shown) [TRG 2420-28]
IC50 (MCR-4): 4080 nM | IC50 (MCR-1): 203 nM

NCC(CCCCN1Cc2ccccc2C(CNCCc2ccccc2)C1c1cc(C(F)(F)F)cc(C(F)(F)F)c1)NCc1ccccc1 (stereo not shown) [TRG 2421-1]
IC50 (MCR-4): 1780 nM | IC50 (MCR-1): 4180 nM

NCC(CCCCN1Cc2ccccc2C(CNCCc2ccccc2)C1c1cc(C(F)(F)F)cc(C(F)(F)F)c1)NCc1ccc(Br)cc1 (stereo not shown) [TRG 2421-3]
IC50 (MCR-4): 9640 nM | IC50 (MCR-1): 4910 nM

COc1ccc(CNC(CN)CCCCN2Cc3ccccc3C(CNCCc3ccccc3)C2c2cc(C(F)(F)F)cc(C(F)(F)F)c2)cc1 (stereo not shown) [TRG 2421-4]
IC50 (MCR-4): 2810 nM | IC50 (MCR-1): 2570 nM

NCC(CCCCN1Cc2ccccc2C(CNCCc2ccccc2)C1c1cc(C(F)(F)F)cc(C(F)(F)F)c1)NCc1ccc(-c2ccccc2)cc1 (stereo not shown) [TRG 2421-5]
IC50 (MCR-4): 9410 nM | IC50 (MCR-1): 11200 nM

NCC(CCCCN1Cc2ccccc2C(CNCCc2ccc(O)cc2)C1c1cc(C(F)(F)F)cc(C(F)(F)F)c1)NCc1ccccc1 (stereo not shown) [TRG 2421-6]
IC50 (MCR-4): 760 nM | IC50 (MCR-1): 2250 nM

Cc1ccc(CNC(CN)CCCCN2Cc3ccccc3C(CNCCc3ccc(O)cc3)C2c2cc(C(F)(F)F)cc(C(F)(F)F)c2)cc1 (stereo not shown) [TRG 2421-7]
IC50 (MCR-4): 4530 nM | IC50 (MCR-1): 3190 nM

COc1ccc(CNC(CN)CCCCN2Cc3ccccc3C(CNCCc3ccc(O)cc3)C2c2cc(C(F)(F)F)cc(C(F)(F)F)c2)cc1 (stereo not shown) [TRG 2421-9]
IC50 (MCR-4): 1750 nM | IC50 (MCR-1): 1500 nM

NCC(CCCCN1Cc2ccccc2C(CNCCc2ccc(O)cc2)C1c1cc(C(F)(F)F)cc(C(F)(F)F)c1)NCc1ccc(-c2ccccc2)cc1 (stereo not shown) [TRG 2421-10]
IC50 (MCR-4): 9110 nM | IC50 (MCR-1): 4770 nM

COc1ccc(CCNCC2c3ccccc3CN(CCCCC(CN)NCc3ccc(C)cc3)C2c2cc(C(F)(F)F)cc(C(F)(F)F)c2)cc1 (stereo not shown) [TRG 2421-12]
IC50 (MCR-4): 1400 nM | IC50 (MCR-1): 2570 nM

COc1ccc(CCNCC2c3ccccc3CN(CCCCC(CN)NCc3ccc(Br)cc3)C2c2cc(C(F)(F)F)cc(C(F)(F)F)c2)cc1 (stereo not shown) [TRG 2421-13]
IC50 (MCR-4): 8110 nM | IC50 (MCR-1): 4410 nM

COc1ccc(CCNCC2c3ccccc3CN(CCCCC(CN)NCc3ccc(OC)cc3)C2c2cc(C(F)(F)F)cc(C(F)(F)F)c2)cc1 (stereo not shown) [TRG 2421-14]
IC50 (MCR-4): 1690 nM | IC50 (MCR-1): 3470 nM

COc1ccc(CCNCC2c3ccccc3CN(CCCCC(CN)NCc3ccc(-c4ccccc4)cc3)C2c2cc(C(F)(F)F)cc(C(F)(F)F)c2)cc1 (stereo not shown) [TRG 2421-15]
IC50 (MCR-4): 7600 nM | IC50 (MCR-1): 7810 nM

COc1ccc(CCNCC2c3ccccc3CN(CCCCC(CN)NCc3ccccc3)C2c2cc(C(F)(F)F)cc(C(F)(F)F)c2)cc1OC (stereo not shown) [TRG 2421-16]
IC50 (MCR-4): 360 nM | IC50 (MCR-1): 2420 nM

COc1ccc(CCNCC2c3ccccc3CN(CCCCC(CN)NCc3ccc(Br)cc3)C2c2cc(C(F)(F)F)cc(C(F)(F)F)c2)cc1OC (stereo not shown) [TRG 2421-18]
IC50 (MCR-4): 1350 nM | IC50 (MCR-1): 4790 nM

Reference: patent US6608082B1, “Treatment of erectile dysfunction using isoquinoline compound melanocortin receptor ligands” (Lion Bioscience AG, priority 1998, dated 2003)
